# From paper PMC9555560, “Fast relaxing red and near-IR switchable azobenzenes with chalcogen and halogen substituents: periodic trends, tuneable thermal half-lives and chalcogen bonding” (Chemical Science, 2022)
# Assays:
# [1] = UV-vis spectra of the E isomers (n → π* absorption maximum); assay type: physicochemical; settings: E isomer, DMSO
# Source text: The UV-vis spectra of the (E)-X4 derivatives and (E)-X2,m-Y2 are shown in Fig. 3 (analogous spectra for the Z isomers, and deconvoluted spectra are available in the ESI ^†). […] The n → π* transition maximum, λmax, typically followed the order meta-H > –NMe2 > –OMe and ortho-S > Cl > F. It is clear from these experiments that the four ortho X substituents in the X4 derivatives are essential for achieving the deeply red-shifted tails which allows for red/near-IR triggered photo-isomerisation.
# (§1) All UV-vis spectra were determined in DMSO solution. Extinction coefficients were determined by recording a UV-vis spectra for the E isomer at 10, 20, 30, 40 µM in DMSO respectively. The absorbance at the maximum of the π - π* transition of the E‐isomers was plotted against concentration (Beer-Lambert plot) to determine the molar extinction coefficient ε. For each slow relaxing compound, the E isomer sample at 40 µM was irradiated with the appropriate wavelength of light to generate the photo-stationary state, and another spectrum was run. This spectrum was normalised to units of ε and overlaid with the dark (100% E isomer) spectrum.
# [2] = E → Z photo-isomerisation with LEDs / photo-stationary state (PSS) determination; assay type: physicochemical; settings: under irradiation
# Protocol: The E → Z photo-isomerisation and half-life for the Z → E thermal isomerisation was evaluated for all derivatives (Fig. 7 and Table 1, see ESI ^† for original data). To our surprise, the half-lives for (Z)-X2,m-Y2 derivatives were in the order of hours to days for X = F and Cl: the effect of the meta group was not as drastic as anticipated. We typically observed a ∼4 fold decrease in half-life by substituting H with OMe, and a further 3-fold drop from OMe to NMe2 for X = F, Cl and SEt. The nature of the ortho-substituent appeared to be the main influence on τ1/2 (F > Cl ≫ SEt). However, these predictable trends observed for the meta-substitution allow for precise tuning of thermal half-lives. The photo-stationary states (PSSs) of these derivatives ranged from 48–77% Z isomer (Table 1).
# Remarkably, it was possible to photo-switch the tetra-iodo derivative I4-ester using near-IR light (730 nm) (Fig. 8C). […] Photo-isomerisation was not detected for the ortho-telluro derivatives. This is consistent with findings by Haberhauer and co-workers, who propose that the strong chalcogen bonds in the E isomer of a PhTe-substituted azobenzene lead to dramatic energy differences between the E and Z isomers, which suppresses photoswitching.[43] The photo-stationary states of the halogen X4 derivatives range from 50–84% (Table 1) and could also be determined for the slower relaxing chalcogen derivatives (PSS 46–95%, see Fig. S308–S323 ^† for original data).
# as §1, with “spectrum. […]” for “spectrum.”
SMILES,λ max of n → π* transition [1] [nm],Stability to light [2]
"CCSc1cc(CNC(=O)OC(C)(C)C)c(OC)c(SCC)c1/N=N/c1c(SCC)cc(CNC(=O)OC(C)(C)C)c(OC)c1SCC [(SEt)4,m-OMe2-NHBoc]",512.9,unstable to light
"COc1cc(/N=N/c2cc(OC)c(CNC(=O)OC(C)(C)C)cc2OC)c(OC)cc1CNC(=O)OC(C)(C)C [OMe2,m-OMe2]",426.6,unstable to light
